Test results as given in paper PMC12040169 (PLOS Biology, 2025).

Test: in vitro
Details: human, hela cells, % viability

| SMILES | viability at 28.5 h, 10 µM |
| --- | --- |
| CCCS(=O)(=O)n1ccn(-c2cccc(C(F)(F)F)c2)c1=O [CBK106585] | 88.3% |
| CC(C)c1ccc(S(=O)(=O)n2ccn(-c3cccc(C(F)(F)F)c3)c2=O)cc1 [CBK106587] | 93.8% |
| CC(C)S(=O)(=O)n1ccn(-c2ccc(N(C)C)cc2)c1=O [CBK106600] | 95.7% |
| CC(C)CCCC(=O)n1ccn(-c2ccc(N(C)C)cc2)c1=O [CBK106603] | 92.7% |
| CN(C)c1ccc(-n2ccn(S(=O)(=O)c3ccc4ccccc4c3)c2=O)cc1 [CBK106607] | 93.5% |
| CN(C)c1ccc(-n2ccn(S(=O)(=O)c3ccc(Oc4ccccc4)cc3)c2=O)cc1 [CBK106608] | 89.3% |
| Cc1nn(C)c(C)c1S(=O)(=O)n1ccn(-c2ccc(N(C)C)cc2)c1=O [CBK106610] | 93% |
| O=C(CCCOc1ccc(Cl)cc1)n1ccn(CCc2cccs2)c1=O [CBK106614] | 104% |
| O=c1n(C(c2ccccc2)c2ccccc2)ccn1S(=O)(=O)c1ccc2ccccc2c1 [CBK106623] | 94.6% |
| O=c1n(C(c2ccccc2)c2ccccc2)ccn1S(=O)(=O)c1ccc(Oc2ccccc2)cc1 [CBK106624] | 89.5% |
| COc1cccc(-n2ccn(C(=O)CCC3CCCC3)c2=O)c1 [CBK106625] | 91.1% |
| CC(C)S(=O)(=O)n1ccn(-c2ccc3c(c2)OCO3)c1=O [CBK106630] | 90.9% |
| O=c1n(-c2ccc3c(c2)OCO3)ccn1S(=O)(=O)c1ccc2c(c1)OCCO2 [CBK106636] | 87.8% |
| COc1cccc(OCc2ccc(Cn3ccn(C(=O)CCCC(C)C)c3=O)cc2)c1 [CBK106638] | 90.5% |
| Cc1nc2cc(OCc3ccc(Cn4ccn(C(=O)CCC5CCCC5)c4=O)cc3)ccc2s1 [CBK106641] | 115% |
| CC(C)S(=O)(=O)n1ccn(-c2ccc(Oc3ccccc3)cc2)c1=O [CBK106644] | 86.3% |
| CCCc1ccc(S(=O)(=O)n2ccn(-c3ccc(Oc4ccccc4)cc3)c2=O)cc1 [CBK106648] | 107% |
| COc1ccc(S(=O)(=O)n2ccn(-c3ccc(Oc4ccccc4)cc3)c2=O)cc1OC [CBK106649] | 86.9% |
| O=c1n(-c2ccc(OC(F)(F)F)cc2)ccn1S(=O)(=O)c1ccccc1 [CBK106655] | 95.1% |
| O=c1n(-c2ccc(OC(F)(F)F)cc2)ccn1S(=O)(=O)c1ccc(Cl)c(Cl)c1 [CBK106656] | 94.7% |
| COc1ccc(OCCCn2ccn(C(=O)CCCOc3ccc(Cl)cc3)c2=O)cc1 [CBK106662] | 94.3% |
| CCCS(=O)(=O)n1ccn(-c2ccc(Cl)c(Cl)c2)c1=O [CBK106667] | 110% |
| O=c1n(-c2ccc(Cl)c(Cl)c2)ccn1S(=O)(=O)CCc1cccc2ccccc12 [CBK106668] | 106% |
| O=C(OCc1ccccc1)N1CCC(n2ccn(C(=O)CCC3CCCC3)c2=O)CC1 [CBK106670] | 86.7% |

| SMILES | viability at 28.5 h, 10 µM |
| --- | --- |
| COc1cccc(Oc2nccnc2-c2ccc3c(c2)OCO3)c1 [CBK106704] | 94.9% |
| c1ccc(C(Oc2nccnc2-c2ccc3c(c2)OCO3)c2ccccc2)cc1 [CBK106707] | 103% |
| c1ccc(OCCOc2nccnc2-c2ccc3c(c2)OCO3)cc1 [CBK106714] | 96.1% |
| c1cc(-c2nccnc2Oc2ccc3c(c2)OCO3)ccn1 [CBK106726] | 92.4% |
| c1cc(-c2nccnc2OC2CCCCC2)ccn1 [CBK106727] | 87.8% |
| c1ccc(C(Oc2nccnc2-c2ccncc2)c2ccccc2)cc1 [CBK106728] | 89.1% |
| c1cc(-c2nccnc2OCCn2ccnc2)ccn1 [CBK106737] | 87% |
| COc1ncc(-c2nccnc2OCCc2c[nH]c3ccccc23)c(OC)n1 [CBK106743] | 79.2% |
| COc1ncc(-c2nccnc2OC2CCCCC2)c(OC)n1 [CBK106745] | 90.8% |
| COc1ncc(-c2nccnc2OCc2ccccc2)c(OC)n1 [CBK106748] | 108% |
| COc1ncc(-c2nccnc2OCc2cccs2)c(OC)n1 [CBK106750] | 102% |
| O=C1CCCN1CCOc1nccnc1-c1ccsc1 [CBK106759] | 89.7% |
| O=C1c2ccccc2C(=O)N1CCOc1nccnc1-c1ccsc1 [CBK106760] | 90.4% |
| c1ccc(C(Oc2nccnc2-c2ccsc2)c2ccccc2)cc1 [CBK106765] | 103% |
| c1ccc(OCCOc2nccnc2-c2ccsc2)cc1 [CBK106773] | 103% |
| CC(C)N(CCOc1nccnc1-c1ccsc1)C(C)C [CBK106777] | 111% |
| CCCCOc1nccnc1-c1ccsc1 [CBK106778] | 101% |
| O=C1CCCN1CCOc1nccnc1-c1cc2ccccc2s1 [CBK106780] | 91% |
| CC(=O)Nc1cccc(Oc2nccnc2-c2cc3ccccc3s2)c1 [CBK106784] | 101% |
| c1ccc(OCCOc2nccnc2-c2cc3ccccc3s2)cc1 [CBK106787] | 92.3% |
| COc1nccnc1-c1ccc(SC)cc1 [CBK106795] | 95% |
| CSc1ccc(-c2nccnc2OCCN(C(C)C)C(C)C)cc1 [CBK106805] | 107% |
| COc1ccccc1-c1nccnc1OC [CBK106811] | 93.7% |
| COc1ccccc1-c1nccnc1OCCn1cnc2c1c(=O)n(C)c(=O)n2C [CBK106816] | 109% |

| SMILES | viability at 28.5 h, 10 µM |
| --- | --- |
| COc1ccccc1-c1nccnc1OCc1ccccc1 [CBK106817] | 108% |
| COc1ccccc1-c1nccnc1OCCC(C)C [CBK106818] | 109% |
| COc1ccccc1-c1nccnc1OCc1cccs1 [CBK106819] | 88.4% |
| COc1ccccc1-c1nccnc1OCCn1cccc1 [CBK106820] | 91.3% |
| COc1ccccc1-c1nccnc1OCc1cccc(OC)c1OC [CBK106825] | 81.2% |
| COc1ccc(CCOc2nccnc2-c2ccc(OC(F)(F)F)cc2)cc1 [CBK106846] | 109% |
| CC(C)N(CCOc1nccnc1-c1ccc(OC(F)(F)F)cc1)C(C)C [CBK106848] | 89.3% |
| Cc1ccc(-c2nccnc2OCCc2c[nH]c3ccccc23)cc1C [CBK106850] | 96% |
| Cc1ccc(-c2nccnc2OCCn2cccc2)cc1C [CBK106864] | 101% |
| C(=C\c1nccnc1OCCc1c[nH]c2ccccc12)/c1ccccc1 [CBK106872] | 91.7% |
| C(=C\c1nccnc1OCc1ccccn1)/c1ccccc1 [CBK106874] | 105% |
| O=C1CCCN1CCOc1nccnc1/C=C/c1ccccc1 [CBK106875] | 92.4% |
| O=C1NCCN1CCOc1nccnc1/C=C/c1ccccc1 [CBK106879] | 96% |
| CC(=O)Nc1ccc(CCOc2nccnc2/C=C/c2ccccc2)cc1 [CBK106880] | 94.1% |
| CC(=O)Nc1cccc(Oc2nccnc2/C=C/c2ccccc2)c1 [CBK106881] | 91.6% |
| C(=C\c1nccnc1OCc1cccs1)/c1ccccc1 [CBK106883] | 112% |
| C(=C\c1nccnc1OCCn1cccc1)/c1ccccc1 [CBK106884] | 94% |
| COc1cccc(COc2nccnc2/C=C/c2ccccc2)c1OC [CBK106888] | 89.3% |
| CCCCOc1nccnc1/C=C/c1ccccc1 [CBK106890] | 92% |
| Fc1ccc(-c2nccnc2OCc2ccccn2)cc1 [CBK106894] | 99.6% |
| COc1cccc(Oc2nccnc2-c2ccc(F)cc2)c1 [CBK106897] | 93.5% |
| CC(=O)Nc1cccc(Oc2nccnc2-c2ccc(F)cc2)c1 [CBK106900] | 37.1% |
| COCOc1ccc(-c2nccnc2OCCc2cccs2)cc1 [CBK106911] | 106% |
| COCOc1ccc(-c2nccnc2OCCN2C(=O)c3ccccc3C2=O)cc1 [CBK106913] | 111% |

| SMILES | viability at 28.5 h, 10 µM |
| --- | --- |
| COCOc1ccc(-c2nccnc2OC)cc1 [CBK106914] | 111% |
| COCOc1ccc(-c2nccnc2OC2CCCCC2)cc1 [CBK106917] | 94.3% |
| COCc1cccc(-c2nccnc2OC)c1 [CBK106956] | 95.2% |
| COCc1cccc(-c2nccnc2Oc2cccc(OC)c2)c1 [CBK106958] | 90.6% |
| COCc1cccc(-c2nccnc2OC2CCCCC2)c1 [CBK106959] | 87.5% |
| COCc1cccc(-c2nccnc2OC(c2ccccc2)c2ccccc2)c1 [CBK106960] | 101% |
| Cc1ccc(-c2nccnc2OCCN2C(=O)c3ccccc3C2=O)c(C)c1 [CBK106981] | 90% |
| Cc1ccc(-c2nccnc2OCc2ccc3c(c2)OCO3)c(C)c1 [CBK106982] | 93.1% |
| CC(=O)Nc1cccc(Oc2nccnc2-c2ccc(C)cc2C)c1 [CBK106986] | 95.3% |
| Cc1ccc(-c2nccnc2OCCC(C)C)c(C)c1 [CBK106988] | 102% |
| COc1cccc(COc2nccnc2-c2ccc(C)cc2C)c1OC [CBK106995] | 93.2% |
| c1csc(-c2nccnc2OC2CCCCC2)c1 [CBK107060] | 90.2% |
| c1ccc(C(Oc2nccnc2-c2cccs2)c2ccccc2)cc1 [CBK107061] | 112% |
| c1csc(-c2nccnc2OCC2COc3ccccc3O2)c1 (stereo not shown) [CBK107063] | 101% |
| Cn1cc(-c2nccnc2OCCc2cccs2)cn1 [CBK107066] | 95% |
| Cn1cc(-c2nccnc2OCCN2CCCC2=O)cn1 [CBK107068] | 106% |
| Cn1cc(-c2nccnc2OC(c2ccccc2)c2ccccc2)cn1 [CBK107073] | 103% |
| CC(C)N(CCOc1nccnc1-c1cnn(C)c1)C(C)C [CBK107084] | 103% |
| CCCCOc1nccnc1-c1cnn(C)c1 [CBK107085] | 92.8% |
| c1ccc(Cn2cc(-c3nccnc3OCc3ccccn3)cn2)cc1 [CBK107088] | 98.9% |
| c1ccc(Cn2cc(-c3nccnc3OC(c3ccccc3)c3ccccc3)cn2)cc1 [CBK107093] | 88.2% |
| O=C1NCCN1CCOc1nccnc1-c1cnn(Cc2ccccc2)c1 [CBK107094] | 86.3% |
